Test results reported in PubChem BioAssay (NCI).
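Growth conditions: 96-well plates. Treatment: test compound, 48 hours, 5 concentrations. Analysis: linear interpolation between bracketing concentrations; unreached endpoints set to highest concentration. TGI is the concentration that stops growth completely.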

Tests used:
Assay in all cases: NCI tumour cell line growth inhibition, 48 h
786-0 renal = test system: 786-0 renal
A498 renal = test system: A498 renal
A549 NSCLC = test system: A549 NSCLC
ACHN renal = test system: ACHN renal
BT-549 breast = test system: BT-549 breast
CAKI-1 renal = test system: CAKI-1 renal
CCRF-CEM leukemia = test system: CCRF-CEM leukemia
COLO 205 colon = test system: COLO 205 colon
DU-145 prostate = test system: DU-145 prostate
EKVX NSCLC = test system: EKVX NSCLC
HCC-2998 colon = test system: HCC-2998 colon
HCT-116 colon = test system: HCT-116 colon
HCT-15 colon = test system: HCT-15 colon
HOP-62 NSCLC = test system: HOP-62 NSCLC
HOP-92 NSCLC = test system: HOP-92 NSCLC
HS 578T breast = test system: HS 578T breast
HT29 colon = test system: HT29 colon
IGROV1 ovarian = test system: IGROV1 ovarian
K-562 leukemia = test system: K-562 leukemia
KM12 colon = test system: KM12 colon
LOX IMVI melanoma = test system: LOX IMVI melanoma
M14 melanoma = test system: M14 melanoma
MALME-3M melanoma = test system: MALME-3M melanoma
MCF7 breast = test system: MCF7 breast
MDA-MB-231 breast = test system: MDA-MB-231 breast
MDA-MB-435 = test system: MDA-MB-435
MDA-N = test system: MDA-N
MOLT-4 leukemia = test system: MOLT-4 leukemia
NCI-H226 lung = test system: NCI-H226 lung
NCI-H23 lung = test system: NCI-H23 lung
NCI-H460 lung = test system: NCI-H460 lung
NCI/ADR-RES ovarian = test system: NCI/ADR-RES ovarian
OVCAR-3 ovarian = test system: OVCAR-3 ovarian
OVCAR-4 ovarian = test system: OVCAR-4 ovarian
OVCAR-5 ovarian = test system: OVCAR-5 ovarian
OVCAR-8 ovarian = test system: OVCAR-8 ovarian
PC-3 prostate = test system: PC-3 prostate
RXF 393 renal = test system: RXF 393 renal
SF-268 CNS = test system: SF-268 CNS
SF-295 CNS = test system: SF-295 CNS
SF-539 CNS = test system: SF-539 CNS
SK-MEL-2 melanoma = test system: SK-MEL-2 melanoma
SK-MEL-28 melanoma = test system: SK-MEL-28 melanoma
SK-MEL-5 melanoma = test system: SK-MEL-5 melanoma
SK-OV-3 ovarian = test system: SK-OV-3 ovarian
SN12C renal = test system: SN12C renal
SNB-19 CNS = test system: SNB-19 CNS
SNB-75 CNS = test system: SNB-75 CNS
SW-620 colon = test system: SW-620 colon
T-47D breast = test system: T-47D breast
TK-10 renal = test system: TK-10 renal
U251 CNS = test system: U251 CNS
UACC-257 melanoma = test system: UACC-257 melanoma
UACC-62 melanoma = test system: UACC-62 melanoma
UO-31 renal = test system: UO-31 renal
HL-60(TB) leukemia = test system: HL-60(TB) leukemia
NCI-H522 lung = test system: NCI-H522 lung
RPMI-8226 leukemia = test system: RPMI-8226 leukemia

Measured: TGI

CCOP(=O)(OCC)/C(=C/c1cccs1)CC(C)=O
> 100 µM: 786-0 renal | A498 renal | A549 NSCLC | ACHN renal | BT-549 breast | CAKI-1 renal | CCRF-CEM leukemia | COLO 205 colon | DU-145 prostate | EKVX NSCLC | HCC-2998 colon | HCT-116 colon | HCT-15 colon | HOP-62 NSCLC | HOP-92 NSCLC | HS 578T breast | HT29 colon | IGROV1 ovarian | K-562 leukemia | KM12 colon | LOX IMVI melanoma | M14 melanoma | MALME-3M melanoma | MCF7 breast | MDA-MB-231 breast | MDA-MB-435 | MDA-N | MOLT-4 leukemia | NCI-H226 lung | NCI-H23 lung | NCI-H460 lung | NCI/ADR-RES ovarian | OVCAR-3 ovarian | OVCAR-4 ovarian | OVCAR-5 ovarian | OVCAR-8 ovarian | PC-3 prostate | RXF 393 renal | SF-268 CNS | SF-295 CNS | SF-539 CNS | SK-MEL-2 melanoma | SK-MEL-28 melanoma | SK-MEL-5 melanoma | SK-OV-3 ovarian | SN12C renal | SNB-19 CNS | SNB-75 CNS | SW-620 colon | T-47D breast | TK-10 renal | U251 CNS | UACC-257 melanoma | UACC-62 melanoma | UO-31 renal

CC(=O)Nc1ccc(OC/C(N)=N/NC(=O)c2ccncc2)cc1
> 100 µM: 786-0 renal | A498 renal | A549 NSCLC | ACHN renal | BT-549 breast | CAKI-1 renal | CCRF-CEM leukemia | COLO 205 colon | DU-145 prostate | EKVX NSCLC | HCC-2998 colon | HCT-116 colon | HCT-15 colon | HL-60(TB) leukemia | HOP-62 NSCLC | HOP-92 NSCLC | HS 578T breast | HT29 colon | IGROV1 ovarian | K-562 leukemia | KM12 colon | LOX IMVI melanoma | M14 melanoma | MCF7 breast | MDA-MB-231 breast | MDA-MB-435 | MDA-N | MOLT-4 leukemia | NCI-H23 lung | NCI-H460 lung | NCI-H522 lung | NCI/ADR-RES ovarian | OVCAR-3 ovarian | OVCAR-4 ovarian | OVCAR-5 ovarian | OVCAR-8 ovarian | PC-3 prostate | RPMI-8226 leukemia | RXF 393 renal | SF-268 CNS | SF-295 CNS | SF-539 CNS | SK-MEL-2 melanoma | SK-MEL-28 melanoma | SK-OV-3 ovarian | SN12C renal | SNB-19 CNS | SNB-75 CNS | SW-620 colon | T-47D breast | TK-10 renal | U251 CNS | UACC-257 melanoma | UACC-62 melanoma
